In ChEMBL document CHEMBL1140257, “Potential new antitumor agents from an innovative combination of camphorato, a ramification of traditional Chinese medicine, with a platinum moiety” (Bioorg Med Chem Lett, 2005):

Key:
Bel-7402 = assay: In vitro Inhibitory concentration against BEL-7402 human hepatocarcinoma cell line; Tested by sulforhodamine B colorimetric assay; format: functional, cell-based
[1] = In vitro Inhibitory concentration against 3AO human ovarian carcinoma cell line; Tested by sulforhodamine B colorimetric assay; format: functional
HL-60 = assay: In vitro Inhibitory concentration against HL-60 human leukemia cell line; Tested by trypan blue exclusion test; format: functional, cell-based
A549 = assay: In vitro Inhibitory Concentration against A549 human lung carcinoma cell line; Tested by sulforhodamine B colorimetric assay; format: functional, cell-based
Homo sapiens [2] = assay: In vivo antitumor activity against LS-174T human colon carcinoma in mice at 9 (mg/kgper dose); format: functional, organism-based
Homo sapiens [3] = assay: Ratio of TRTV and CRTV at 9 (mg/kgper dose) in LS-174T human colon carcinoma implanted in mice; (TRTV=relative tumor volume of the treated group; CRTV=relative tumor volume of the control group); format: functional, organism-based
Homo sapiens [4] = assay: In vivo antitumor activity against LS-174T human colon carcinoma in mice at 6 (mg/kgper dose); format: functional, organism-based
Homo sapiens [5] = assay: Ratio of TRTV and CRTV at 6 (mg/kgper dose) in LS-174T human colon carcinoma implanted in mice; (TRTV=relative tumor volume of the treated group; CRTV=relative tumor volume of the control group); format: functional, organism-based

Sequence | IC50 (Bel-7402) [nM] | IC50 [1] [nM] | IC50 (HL-60) [nM] | IC50 (A549) [nM] | Inhibition tumor index (Homo sapiens [2]) [%] | T/C (Homo sapiens [3]) [%] | Inhibition tumor index (Homo sapiens [4]) [%] | T/C (Homo sapiens [5]) [%]
CARBOPLATIN | 36100 | 29100 | 2860 | 42300 | – | – | – | –
CISPLATIN | 770 | 470 | 330 | 2230 | – | – | – | –
OXALIPLATIN | – | – | – | – | 51 | 50.8 | 24 | 87.4
